Values of other authors as cited in US20250114375A1, “PHARMACEUTICAL COMPOSITION OF LIFITEGRAST AND LOTEPREDNOL ETABONATE” (ORBICULAR PHARMACEUTICAL TECHNOLOGIES PRIVATE LIMITED, priority 2022, published 2025).

Columns and labels:
[1] = tested on: conjunctival goblet cells; settings: in vivo
glucocorticoid receptors = target: T1, glucocorticoid receptors (Homo sapiens, UniProt P04150); settings: inactive carboxylic acid metabolite of loteprednol etabonate
T1 sequence (P04150 1-777): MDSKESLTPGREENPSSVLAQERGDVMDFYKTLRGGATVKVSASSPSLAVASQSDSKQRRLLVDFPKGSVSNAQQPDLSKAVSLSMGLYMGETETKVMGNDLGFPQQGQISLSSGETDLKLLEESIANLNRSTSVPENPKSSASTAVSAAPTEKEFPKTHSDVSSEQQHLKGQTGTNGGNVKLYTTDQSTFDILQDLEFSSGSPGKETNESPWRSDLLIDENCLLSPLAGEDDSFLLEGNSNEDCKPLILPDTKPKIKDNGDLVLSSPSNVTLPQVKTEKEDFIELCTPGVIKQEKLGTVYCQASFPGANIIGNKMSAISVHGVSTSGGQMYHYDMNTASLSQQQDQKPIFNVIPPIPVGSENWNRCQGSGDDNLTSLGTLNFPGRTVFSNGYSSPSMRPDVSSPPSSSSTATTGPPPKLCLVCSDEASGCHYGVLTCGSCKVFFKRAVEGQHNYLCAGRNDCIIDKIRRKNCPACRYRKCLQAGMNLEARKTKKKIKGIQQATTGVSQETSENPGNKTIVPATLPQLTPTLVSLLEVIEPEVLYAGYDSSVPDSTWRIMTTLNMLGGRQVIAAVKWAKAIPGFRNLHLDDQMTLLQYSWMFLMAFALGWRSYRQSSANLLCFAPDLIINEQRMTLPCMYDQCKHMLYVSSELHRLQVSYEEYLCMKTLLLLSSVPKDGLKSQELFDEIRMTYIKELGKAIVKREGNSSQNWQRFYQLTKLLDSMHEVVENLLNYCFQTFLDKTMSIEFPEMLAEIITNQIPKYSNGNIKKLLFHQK

Row | SMILES | increase of goblet cell area [1] | increase of the number of conjunctival goblet cells [1] | binding to glucocorticoid receptors (glucocorticoid receptors)
1 | CS(=O)(=O)c1cccc(C[C@H](NC(=O)c2c(Cl)cc3c(c2Cl)CCN(C(=O)c2ccc4ccoc4c2)C3)C(=O)O)c1 [Lifitegrast] | 22% | 39% | –
2 | CCOC(=O)OC1(C(=O)O)CCC2C3CCC4=CC(=O)C=CC4(C)C3C(O)CC21C (stereo not drawn) [PJ-91] | – | – | does not bind
